In patent publication US20170283440A1, “CARM1 INHIBITORS AND USES THEREOF” (Epizyme, Inc., priority 2014, published 2017):
Read-outs that look alike come from different tables or passages of the source.

Columns and labels:
[1] = molecular target: T1, Human CARM1 (PRMT4) (Homo sapiens, UniProt Q86X55); assay: CARM1 enzyme assay on peptide substrate (3H-SAM Flashplate); type: biochemical; conditions: CARM1 0.25 nM, 3H-SAM 30 nM, peptide 250 nM; read-out: Biochem IC50
T1 construct: Flag-CARM1-His was eluted with 200 ug/ml FLAG peptide in buffer A; made in house; host or cells: HEK 293F cells infected with recombinant baculovirus (pFastBacMam)
How it was run: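 Flag-CARM1-His (isoform 1, Δ539-561; HEK293F-expressed), 0.25 nM, preincubated 30 min RT with compound, then 30 nM 3H-SAM and 250 nM biotinylated H3(16-30) R26me1 peptide in pH 7.6 Bicine buffer, 2% DMSO. Stopped with 300 uM cold SAM; streptavidin Flashplate capture, cpm. % inhibition vs DMSO/1 mM SAH, 3- or 4-parameter fit.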

[2] = system: asymmetric di-methyl PABP1 in RKO cells; assay: RKO methylation assay (In Cell Western for asymmetric di-methyl PABP1); type: cell-based; conditions: 48 hours incubation, read-out: Cellular IC50
How it was run: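 RKO cells treated 48 h at 37 °C, then fixed, methanol-permeabilized and probed for asymmetric di-methyl PABP1 (16 h, 4 °C) with DRAQ5 counterstain; 800/700 nm intensity ratio read.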

T1 sequence (Q86X55 other isoform, or with tags, fused parts or gaps): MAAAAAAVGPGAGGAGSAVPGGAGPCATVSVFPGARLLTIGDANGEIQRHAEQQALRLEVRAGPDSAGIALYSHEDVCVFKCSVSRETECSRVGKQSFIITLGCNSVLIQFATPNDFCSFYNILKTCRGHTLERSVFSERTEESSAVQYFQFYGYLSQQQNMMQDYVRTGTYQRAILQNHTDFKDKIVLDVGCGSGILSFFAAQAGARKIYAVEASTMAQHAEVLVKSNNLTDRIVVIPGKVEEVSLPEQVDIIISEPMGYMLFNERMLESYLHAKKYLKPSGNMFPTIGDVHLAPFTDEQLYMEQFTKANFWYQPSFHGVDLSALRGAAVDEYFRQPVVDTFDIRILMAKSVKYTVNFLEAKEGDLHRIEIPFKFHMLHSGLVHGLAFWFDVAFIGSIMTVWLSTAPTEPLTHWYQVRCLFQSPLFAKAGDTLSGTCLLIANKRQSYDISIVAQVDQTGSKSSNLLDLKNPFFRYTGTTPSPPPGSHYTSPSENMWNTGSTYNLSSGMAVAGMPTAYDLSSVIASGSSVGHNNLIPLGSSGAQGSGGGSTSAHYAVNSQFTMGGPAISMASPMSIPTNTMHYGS

Compound | IC50 [1] [nM] | IC50 ([2]; Homo sapiens) [nM] | IC50 [2] [nM]
CNCC(O)COc1cc(OC)cc(-c2cc(N[C@@H]3CCOC3)n3ncc(C(C)C)c3n2)c1 (stereo partly shown) [Example 24-6] | < 100 | > 20000 | 
CC(C)n1ncc2c(NS(=O)(=O)N(C)C)cc(-c3cccc(OCC(O)CN)c3)nc21 (stereo not shown) [Example 24-9] | 100 to 1000 | > 20000 | 
CNCC(O)COc1cc(OC)cc(-c2cc(N(C)C3CCOCC3)c3c(C)nn(C(C)C)c3n2)c1 (stereo not shown) [Example 25-4] | < 100 | 10000 to 20000 | 
CNCC(O)COc1cccc(-c2nc(NCc3ccn(C)n3)c3cnn(C4CC4)c3n2)c1 (stereo not shown) [Example 25-5] | 100 to 1000 | > 20000 | 
CNCC(O)COc1cc(OC)cc(-c2cc(N(C)CCOC)n3ncc(C(C)C)c3n2)c1 (stereo not shown) [Example 25-6] | < 100 | > 20000 | 
CC(C)n1ncc2c(N3CCOCC3)cc(-c3cc(OC[C@H](O)CN)cc(OC[C@H](O)CN)c3)nc21 [Example 25-9] | 100 to 1000 | > 20000 | 
CNCC(O)COc1cc(Cl)cc(-c2cc(N3CCOC3=O)n3ncc(C(C)C)c3n2)c1 (stereo not shown) [Example 26-6] | 100 to 1000 | > 20000 | 
CNCC(O)COc1cc(C#N)cc(-c2cc(N3CCOCC3)n3ncc(C(C)C)c3n2)c1 (stereo not shown) [Example 26-9] | 100 to 1000 | > 20000 | 
CNCC(O)COc1cc(Cl)cc(-c2cc(N3CCOCC3)n3ncc(C(C)C)c3n2)c1 (stereo not shown) [Example 27-6] | < 100 | > 20000 | 
CNCC(O)COc1cccc(-c2cc(NS(=O)(=O)N(C)C)c3cnn(C(C)C)c3n2)c1 (stereo not shown) [Example 27-9] | 100 to 1000 | > 20000 | 
CNCC(O)COc1cc(OC(F)(F)F)cc(-c2cc(NC3CCOCC3)c3cnn(C(C)C)c3n2)c1 (stereo not shown) [Example 28-4] | 100 to 1000 | > 20000 | 
CNCC(O)COc1cc(Cl)cc(-c2cc(NC3CCOC3)n3ncc(C(C)C)c3n2)c1 (stereo not shown) [Example 28-6] | < 100 | > 20000 | 
CC(C)n1ncc2c(N3CCOCC3)cc(-c3cccc(NCC(O)CN)c3)nc21 (stereo not shown) [Example 28-9] | 100 to 1000 | > 20000 | 
CNCC(O)COc1cc(Cl)cc(-c2cc(N[C@@H]3CCOC3)n3ncc(C(C)C)c3n2)c1 (stereo partly shown) [Example 29-6] | < 100 | > 20000 | 
Cc1cc(C)c(CNC(=O)c2cc(-c3cccc(OCC(O)CN)c3)nc3nn(C(C)C)cc23)c(=O)[nH]1 (stereo not shown) [Example 29-9] | 100 to 1000 | > 20000 | 
CNCC(O)COc1cccc(-c2nc(NC3CCOCC3)c3cnn(C(C)(C)C)c3n2)c1 (stereo not shown) [Example 30-5] | < 100 | 5000 to 10000 | 
CNCC(O)COc1cc(Cl)cc(-c2cc(N(C)CCOC)n3ncc(C(C)C)c3n2)c1 (stereo not shown) [Example 30-6] | < 100 | > 20000 | 
CNCC(O)COc1cccc(-c2nc(NCc3cccc[n+]3[O-])c3cnn(C4CC4)c3n2)c1 (stereo not shown) [Example 31-5] | 100 to 1000 | > 20000 | 
CNCC(O)COc1cc(OC)cc(-c2cc(Nc3ncccn3)n3ncc(C(C)C)c3n2)c1 (stereo not shown) [Example 31-6] | < 100 | > 20000 | 
CC(C)n1ncc2c(N3CCOCC3)cc(-c3cccc(CCC(O)CN)c3)nc21 (stereo not shown) [Example 31-9] | 100 to 1000 |  | > 20000
CNCC(O)COc1cccc(-c2nc(NCc3ccc[n+]([O-])c3)c3cnn(C4CC4)c3n2)c1 (stereo not shown) [Example 32-5] | 100 to 1000 | > 20000 | 
CNCC(O)COc1cccc(-c2cc(N3CC4(CCOCC4)C3)n3ncc(C(C)C)c3n2)c1 (stereo not shown) [Example 32-6] | < 100 | > 20000 | 
CNCC(O)COc1cccc(-c2nc(NCc3ccccn3)c3cnn(C(C)(C)C)c3n2)c1 (stereo not shown) [Example 33-5] | < 100 | > 20000 | 
C=Cc1cc(OCC(O)CNC)cc(-c2cc(NC3CCOCC3)n3ncc(C(C)C)c3n2)c1 (stereo not shown) [Example 33-6] | 100 to 1000 | > 20000 | 
CNCC(O)COc1cccc(-c2nc(NCc3cc(C)nn3C)c3cnn(C4CC4)c3n2)c1 (stereo not shown) [Example 34-5] | < 100 | > 20000 | 

Compound | IC50 [1] [nM] | IC50 ([2]; Homo sapiens) [nM] | IC50 [2] [nM]
CNCC(O)COc1cc(OC)cc(-c2cc(NC3CCOCC3)n3ncc(C(C)C)c3n2)c1 (stereo not shown) [Example 34-6] | < 100 | > 20000 | 
CNCC(O)COc1cc(OC)cc(-c2cc(N(C)[C@@H]3CCOC3)n3ncc(C(C)C)c3n2)c1 (stereo partly shown) [Example 35-6] | < 100 | > 20000 | 
CNCC(O)COc1cccc(-c2nc(N(C)C3CCOCC3)c3cnn(C(C)(C)C)c3n2)c1 (stereo not shown) [Example 36-5] | < 100 | > 20000 | 
CNCC(O)COc1cc(OC)cc(-c2cc(N(C)[C@H]3CCOC3)n3ncc(C(C)C)c3n2)c1 (stereo partly shown) [Example 36-6] | < 100 | > 20000 | 
NCC(O)COc1cccc(-c2nc(NCc3cccc4ccnn34)c3cnn(C4CC4)c3n2)c1 (stereo not shown) [Example 37-5] | < 100 | > 20000 | 
CNCC(O)COc1cc(OC)cc(-c2cc(N3CCC(O)CC3)n3ncc(C(C)C)c3n2)c1 (stereo not shown) [Example 37-6] | 100 to 1000 | > 20000 | 
Cc1cc(C)c(CNc2nc(-c3cccc(OCC(O)CN)c3)nc3c2cnn3C2CC2)c(=O)[nH]1 (stereo not shown) [Example 38-5] | 100 to 1000 | > 20000 | 
CNCC(O)COc1cc(Cl)cc(-c2cc(NC3C4COCC43)n3ncc(C(C)C)c3n2)c1 (stereo not shown) [Example 38-6] | 100 to 1000 | > 20000 | 
NCC(O)COc1cccc(-c2nc(NCc3cn4ccsc4n3)c3cnn(C4CC4)c3n2)c1 (stereo not shown) [Example 39-5] | < 100 | 10000 to 20000 | 
CNCC(O)COc1cc(Cl)cc(-c2cc(NC3CCOCC3)n3ncc(C(C)C)c3n2)c1 (stereo not shown) [Example 39-6] | < 100 | > 20000 | 
CNCC(O)COc1cc(Cl)cc(-c2cc(N(C)[C@@H]3CCOC3)n3ncc(C(C)C)c3n2)c1 (stereo partly shown) [Example 40-6] | < 100 | > 20000 | 
Cc1cccn2cc(CNc3nc(-c4cccc(OCC(O)CN)c4)nc4c3cnn4C3CC3)nc12 (stereo not shown) [Example 41-5] | 100 to 1000 | > 20000 | 
CNCC(O)COc1cc(Cl)cc(-c2cc(N(C)[C@H]3CCOC3)n3ncc(C(C)C)c3n2)c1 (stereo partly shown) [Example 41-6] | < 100 | > 20000 | 
CNCC(O)COc1cccc(-c2nc(NCc3c(C)cc(C)[nH]c3=O)c3cnn(C4CC4)c3n2)c1 (stereo not shown) [Example 42-5] | 100 to 1000 | > 20000 | 
CNCC(O)COc1cccc(-c2nc(NCc3cn4ccsc4n3)c3cnn(C4CC4)c3n2)c1 (stereo not shown) [Example 43-5] | < 100 | > 20000 | 
CNCC(O)COc1cc(OC)cc(-c2cc(N3CC4CCC(C3)O4)n3ncc(C(C)C)c3n2)c1 (stereo not shown) [Example 43-6] | 100 to 1000 | > 20000 | 
CNCC(O)COc1cccc(-c2nc(NCc3cn4cccc(C)c4n3)c3cnn(C4CC4)c3n2)c1 (stereo not shown) [Example 44-5] | 100 to 1000 | 10000 to 20000 | 
CNCC(O)COc1cc(Cl)cc(-c2cc(N3C4CCC3COC4)n3ncc(C(C)C)c3n2)c1 (stereo not shown) [Example 46-6] | < 100 | > 20000 | 
CNCC(O)COc1cc(Cl)cc(-c2cc(NC3CCOCC3)n3ncc(C(C)(C)C)c3n2)c1 (stereo not shown) [Example 48-6] | < 100 | > 20000 | 
CNCC(O)COc1cc(OC)cc(-c2cc(N3CC4(CCOCC4)C3)n3ncc(C(C)C)c3n2)c1 (stereo not shown) [Example 49-6] | 100 to 1000 | > 20000 | 
CNCC(O)COc1cc(Cl)cc(-c2cc(N3CC4(CCOCC4)C3)n3ncc(C(C)C)c3n2)c1 (stereo not shown) [Example 50-6] | < 100 | > 20000 | 
CNCC(O)COc1cc(OC)cc(-c2cc(N3CC(CO)(CCl)C3)n3ncc(C(C)C)c3n2)c1 (stereo not shown) [Example 52-6] | < 100 | > 20000 | 
CNCC(O)COc1cc(Cl)cc(-c2cc(N3CC(CO)(CCl)C3)n3ncc(C(C)C)c3n2)c1 (stereo not shown) [Example 53-6] | < 100 | > 20000 | 
CNCC(O)COc1cccc(-c2cc(NCCCCCNC(=O)c3ccn(C)n3)c3cnn(C(C)C)c3n2)c1 (stereo not shown) [Example 64-1] | 100 to 1000 | 10000 to 20000 | 
CNCC(O)COc1cccc(-c2cc(NCCCCCCNC(=O)c3ccn(C)n3)c3cnn(C(C)C)c3n2)c1 (stereo not shown) [Example 66-1] | < 100 | > 20000 | 
